Columns and labels:
Format in all cases: cell-based, rat
[1] = Cell viability by MTT test; conditions: rat, 24 h, INS-1 cells, control 100%
Method: (§1) INS-1 cell strain from rat origin used in the studies was proliferated by performing routine passages once per week. The cells were grown under 1 atm pressure, in the incubator containing 5% CO2 and 95% air, in powder RPMI 1640 medium containing heat inactivated 10% fetal bovine serum (FBS) and antibiotics (100 unit/ml penicillin G100, 100 µg/ml streptomycin), 1% sodium pyruvate, hepes, sodium bicarbonate and beta-mercaptoethanol at 37 °C. The cells produced in 75 cm^2 sterile culture plate were used for the experiment when they covered 60-80% of the culture plate.
(§2) The cells to be used in the experiments were removed from the surface of culture plate where they stuck, when they cover 60-80% of the culture plate, by using trypsin. In order to prevent the effect of trypsin to cells whose removal was monitored under microscope, the medium with the equal amount as trypsin was added and the cell suspension was collected in the centrifuge tube and centrifuged in 1500 rpm for 5 minutes. The supernatant was removed after centrifuge, the medium was added to the cells remained in the bottom part of the tube and pipetted in order to form single cell suspension. The total amount of cells was calculated by using hemocytometer. 50 000 INS-1 beta cells taken from 100% viable single cell suspension, whose cell amount was calculated, were cultured to each of the culture plates with 96 wells. The cultured cells were incubated at 37 °C for 24 hours in order to provide the sticking to the surface of culture plate and growing. After 24 of incubation, the cells were treated with 0.25 mM, 0.5 mM, 0.75 mM, 1 mM, 1.25 mM, 1.5 mM, 1.75 mM, […], 2.75 mM, 3 mM, 3.25 mM, 3.5 mM, 3.75 mM,4 mM, 4.25 mM, 4.5 mM, 4.75 mM, 5 mM palmitic acid which were the chosen doses for palmitic acid. 10 wells including the control group were used in the experiments and 24-hour experiment groups were formed for each of the concentrations.
(§3) After the removal of the grown cells by trypsin, culturing was performed to 96 wells in a way such that there would be 50 000 cells in 200 µl. The cultured cells were incubated at 37 °C for 24 hours in order to provide growing. After 24 h of incubation, the cells were treated with 1nM, 10nM, 100nM curaglutide which were the chosen doses. 10 wells including the control group were used in the experiments and 24-hour experiment groups have been formed for each of the concentrations.
(§4) MTT ([3-(4, 5-dimethyl tiazol-2-il)-2, 5 diphenyl tetrazolium bromide]) test is a drug sensitivity test based on cell culture principal, it aims to assess the cell growth and/or cell death in an indirect way. This frequently used test differs from the other testing methods, with the advantages that it is fast, sensitive, reproducible and easy to apply. The cracking of the tetrazolium ring of MTT paint by mitochondria in living cells underlies the basis of this method. This reaction is catalyzed by succinate dehydrogenase which is a mitochondrial enzyme. MTT is absorbed to cells actively and it is reduced to formazan which is non-soluble in water and has blue-purple color, by the reaction taking place in mitochondria. The MTT reducing properties of the cells are accepted as the cell viability criteria and they are directly proportionate to the paint density and living cell amount obtained by MTT analyze. While living cells with non-damaged mitochondria function are painted with purple color, cells that are dead or with damaged mitochondria function are not painted. Following bringing the formazan crystals formed by incubated living cells into soluble form, reaction product is read […].
(§5) 50 mg MTT (AppliChem A2231 0001) was weighed, it was dissolved by completing 10 ml with RPMI 1640 medium via vortex, with paying attention that there are no not-dissolved paint particles left, and they were obtained by filtering through 0.22 µm filter. It was used by preparing a fresh one each time. […]

[2] = system: INS-1 cells; test: Cell viability by MTT test; conditions: 2 mM palmitic acid, repetitive experiments
Method: as §1, §2, §3, §4, §5

[3] = system: INS-1 beta cells; test: ROS measurement with H2DCFDA; conditions: INS-1 cells, 3rd hour, control 100%
Method: When this compound oxidizes by oxidants or free radicals, fluorescent dichlorofluorescein (DCF) will occur.
INS-beta cells were cultured into the plates covered with black with 96 wells in a way such that there would be 50 000 cells in 100 µl. After the growth of the cells, the experiment group (only palmitic acid given) and the groups wherein curaglutide as both protective and therapeutical against palmitic acid was given were removed at the end of the experiment, and each of the wells were washed with PBS. Then 100 µl PBS was added to every well. Then, start of experiment was accepted as 0th hour by adding 10 mM DCFA and the measurements were taken for 3 hours in every 30 minutes, including 0th hour. The absorbance values of each group and the absorbance values in 3rd hour was calculated by assuming the value of the control group as 100%.
ROS measurement was performed by applying H 2 DCFDA occurred as a result of chemical […] of fluorescein which is used as a marker for reactive oxygen derivatives (ROS) to INS-1 beta cells wherein palmitic acid was applied in different doses, and the results are shown in Figure 5.
ROS measurement was performed by applying 10 nM curaglutide as protector and therapeutical to INS-1 beta cells wherein palmitic acid was applied in different doses, and the results are shown in Figure 11.

Structure (SMILES): CCCCCCCCCCCCCCCC(=O)O [palmitic acid]
- viability at 24 h, 0.25 mM ([1]; 0.25 mM palmitic acid): 92 ± 2.4%
- viability at 24 h, 0.5 mM ([1]; 0.5 mM palmitic acid): 81.5 ± 7.6%
- viability at 24 h, 0.75 mM ([1]; 0.75 mM palmitic acid): 75.6 ± 4.37%
- viability at 24 h, 1 mM ([1]; 1 mM palmitic acid): 74.8 ± 2.35%
- viability at 24 h, 1.25 mM ([1]; 1.25 mM palmitic acid): 72.7 ± 7.7%
- viability at 24 h, 1.5 mM ([1]; 1.5 mM palmitic acid): 69.9 ± 7.4%
- viability at 24 h, 1.75 mM ([1]; 1.75 mM palmitic acid (autophagic dose)): 60.6 ± 11.6%
- viability at 24 h, 2 mM ([1]; 2 mM palmitic acid (apoptotic dose)): 50.1 ± 11%
- viability at 24 h, 2.25 mM ([1]; 2.25 mM palmitic acid): 58.4 ± 11.5%
- viability at 24 h, 2.5 mM ([1]; 2.5 mM palmitic acid): 49.9 ± 3%
- viability at 24 h, 2.75 mM ([1]; 2.75 mM palmitic acid): 62.9 ± 4.3%
- viability at 24 h, 3 mM ([1]; 3 mM palmitic acid (necrotic dose)): 36.5 ± 3.3%
- viability at 24 h, 3.25 mM ([1]; 3.25 mM palmitic acid): 44.1 ± 8.7%
- viability at 24 h, 3.5 mM ([1]; 3.5 mM palmitic acid): 39.4 ± 11.4%
- viability at 24 h, 3.75 mM ([1]; 3.75 mM palmitic acid): 42.9 ± 8.2%
- viability at 24 h, 4 mM ([1]; 4 mM palmitic acid (necrotic dose)): 41 ± 6.6%
- viability at 24 h, 4.25 mM ([1]; 4.25 mM palmitic acid): 44.9 ± 11.8%
- viability at 24 h, 4.5 mM ([1]; 4.5 mM palmitic acid): 37.3 ± 10.5%
- viability at 24 h, 4.75 mM ([1]; 4.75 mM palmitic acid): 35.7 ± 3.7%
- viability at 24 h, 5 mM ([1]; 5 mM palmitic acid): 42.1 ± 4.4%
- cell death [2]: 50%
- ROS measurement percentages ([3]; 0.5 mM palmitic acid): 116±6.01%
- ROS measurement percentages ([3]; 1 mM palmitic acid): 117±2.5%
- ROS measurement percentages ([3]; 1.5 mM palmitic acid): 119.7±7.0%
- ROS measurement percentages ([3]; 1.75 mM palmitic acid): 136.5±5.6%
- ROS measurement percentages ([3]; 2 mM palmitic acid): 145.8±3.8%
- ROS measurement percentages ([3]; 2.5 mM palmitic acid): 172.1±6.1%
- ROS measurement percentages ([3]; 3 mM palmitic acid): 174.8±9.9%
- ROS measurement percentages ([3]; 3.5 mM palmitic acid): 241.6±5.5%
- ROS measurement percentages ([3]; 4 mM palmitic acid): 262.2±9.9%

From EP3351262A1, “CURAGLUTIDE FOR IN TREATMENT OF PREDIABETES, DIABETES, OBESITY AND METABOLIC DISEASES ASSOCIATED THERETO” (Istanbul Universitesi Rektorlugu, priority 2016, dated 2018)
